The results in this text go back to ChEMBL document CHEMBL1201862, “PubChem BioAssay data set” (2004).

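Results reflect a 48-hour exposure of cells in 96-well plates to compound at five concentrations. At the GI50, growth is halved.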 Activity calls are given as the source filed them. Rule as the data show it: active = GI50 up to about 1.1 µM and inactive = higher. Square brackets hold non-standard residues; d marks the D form. Peptide text beside a SMILES is read from it. * marks the point of attachment. X26 = COC1=CC(=O)N(C(=O)[C@@H](O*)C(C)C)[C@H]1Cc1ccccc1; Bn2Val = CC(C)[C@@H](C(=O)*)N(Cc1ccccc1)Cc1ccccc1; NMeV = CN[C@H](C(=O)O)C(C)C; dNMeA = CN[C@H](C)C(=O)O

Holding throughout (assay): NCI tumour cell line growth inhibition, 48 h
Assay [1] concerns CCRF-CEM.
The test system of assay [2] is COLO 205.
The subject of assay [3] is HCT-15.
Assay [4] has as its system HL-60.
Assay [5] concerns HT-29.
For assay [6], the system named is IGROV-1.
Assay [7] relates to KM12.
In assay [8] the test system is M14.
Assay [9] relates to MDA-MB-231.
Assay [10] concerns MDA-N.
Assay [11] concerns MOLT-4.
The subject of assay [12] is Malme-3M.
Assay [13] relates to NCI/ADR-RES.
Assay [14] has as its system RXF 393.
The test system of assay [15] is SF-268.
Assay [16] relates to SF-295.
Assay [17] relates to SK-MEL-2.
For assay [18], the system named is SK-MEL-5.
The subject of assay [19] is SW-620.
Assay [20] relates to CAKI-1.

As for `CN(C)CCCNCc1cccc2ccccc12`, the GI50 was > 100 µM (inactive) in [1]; > 100 µM (inactive) in [2]; more than 100 µM in [3]; > 100 µM (inactive) in assay [4]; > 100 µM (inactive) in [5]; > 100 µM (inactive) in assay [6]. Moreover, the GI50 is > 100 µM (inactive) in assay [7]; 66.5 µM (inactive) in assay [8]; > 100 µM (inactive) in [9]; > 100 µM (inactive) in [10]; > 100 µM (inactive) in [11]; > 100 µM (inactive) in [12]. The GI50 in assay [13], in [14], in [15], in assay [16], in [17] and in [18] was > 100 µM (inactive) in each case. For the same molecule, the GI50 in assay [19] is > 100 µM (inactive).

As for `CC(C)N(c1cc2c(cc1F)c(=O)c(C(=O)O)cn2-c1ccc(N2CCN(C)CC2)cn1)C(C)C`, the GI50 was > 100 µM (inactive) in [20]; > 100 µM (inactive) in assay [1]; > 100 µM (inactive) in [2]; more than 100 µM in [3]; > 100 µM (inactive) in assay [4]; > 100 µM (inactive) in [5]. The GI50 in assay [6], in assay [7], in assay [8], in assay [9], in assay [10] and in [11] was > 100 µM (inactive) each time. The GI50 in assay [12], in [13], in assay [14], in [15], in assay [16] and in assay [19] was > 100 µM (inactive) throughout.

Regarding `CCC(C)N1CN(c2ccccc2)C2(CCN(CCCSc3ccc(F)cc3)CC2)C1=O` (stereo not drawn), the GI50 was 3.45 µM (inactive) in assay [20]; 2.44 µM (inactive) in [1]; 1.72 µM (inactive) in assay [2]; 1.75 µM in assay [3]; 3.79 µM (inactive) in [4]; 2.15 µM (inactive) in [5]. The GI50 in [6] was 4.31 µM (inactive); in assay [7], 3.92 µM (inactive); in assay [8], 2.34 µM (inactive); in [9] it was 0.296 µM (active); in assay [10] it was 2.9 µM (inactive); in assay [11] it was 3 µM (inactive). Further, the GI50 in assay [12] was 4.48 µM (inactive); in assay [13], 3.05 µM (inactive); in assay [14] it was 2.84 µM (inactive); in assay [15], 6.75 µM (inactive); in assay [16] it was 2.35 µM (inactive); in [18], 1.96 µM (inactive). Besides, in [19], the GI50 is 4.06 µM (inactive).

For the molecule `Cc1ccc([N+](=O)[O-])cc1NC(=O)C(=O)C1CCC2=C(Sc3ccccc3N2)C1=O` (stereo not drawn), the GI50 in assay [20] is 52 µM (inactive); in [1], 63.4 µM (inactive); in assay [2], > 100 µM (inactive); in assay [3], more than 100 µM; in [4] it was > 100 µM (inactive); in assay [5], > 100 µM (inactive). Besides, the GI50 in assay [6] was > 100 µM (inactive); in assay [7], > 100 µM (inactive); in assay [8], > 100 µM (inactive); in [9] it was > 100 µM (inactive); in assay [10] it was > 100 µM (inactive); in assay [11] it was 43.7 µM (inactive). The GI50 in [13], in assay [14], in assay [15], in assay [16], in [17] and in [18] was > 100 µM (inactive) throughout. Besides, in assay [19], the GI50 was > 100 µM (inactive).

For the molecule `CC(=O)Nc1nc(O)c2nc(C=O)cnc2n1`, the GI50 in [20] was > 100 µM (inactive); in assay [2] it was > 100 µM (inactive); in assay [3], more than 100 µM; in [4], > 100 µM (inactive); in [5], > 100 µM (inactive); in [6], > 100 µM (inactive). Besides, the GI50 in assay [7], in [8], in [9], in assay [10], in assay [11] and in [12] was > 100 µM (inactive) throughout. Further, the GI50 in assay [13], in [14], in [15], in [16], in assay [17] and in assay [18] was > 100 µM (inactive) throughout. Moreover, in assay [19], the GI50 is > 100 µM (inactive).

With `CCCCC/C=C\C=C\CCCCCCCCC(=O)OC`, the GI50 in assay [20] is > 100 µM (inactive); in assay [2], > 100 µM (inactive); in [3] it was more than 100 µM; in [4], > 100 µM (inactive); in assay [5], > 100 µM (inactive); in [6], > 100 µM (inactive). The GI50 in assay [7], in assay [8], in assay [9], in assay [10], in assay [11] and in [12] was > 100 µM (inactive) in each case. The GI50 in assay [13] is > 100 µM (inactive); in assay [14] it was > 100 µM (inactive); in assay [15], > 100 µM (inactive); in assay [16] it was > 100 µM (inactive); in assay [17] it was > 100 µM (inactive); in [18] it was 24 µM (inactive). The GI50 in [19] was > 100 µM (inactive).

For `CCn1c(=O)c2nc(SC)sc2n(-c2ccc(C)cc2)c1=O`, the GI50 in assay [1] was > 100 µM (inactive); in [2] it was > 100 µM (inactive); in [3] it was more than 100 µM; in assay [4], > 100 µM (inactive); in assay [5], > 100 µM (inactive); in assay [6], > 100 µM (inactive). The GI50 in assay [7] is 88.9 µM (inactive); in assay [8], 6.68 µM (inactive); in assay [9], > 100 µM (inactive); in [10], > 100 µM (inactive); in assay [11], > 100 µM (inactive); in assay [12], > 100 µM (inactive). For the same molecule, the GI50 in assay [13] was > 100 µM (inactive); in assay [14], > 100 µM (inactive); in assay [15], > 100 µM (inactive); in [16], > 100 µM (inactive); in assay [17], 66.4 µM (inactive); in assay [18], > 100 µM (inactive). In addition, in assay [19], the GI50 is > 100 µM (inactive).

Regarding `O=c1[nH]/c(=C/c2ccc(OCc3ccccc3)cn2)c(=O)[nH]/c1=C/c1ccc(Cl)cc1`, the GI50 is 0.45 µM (active) in [20]; 3.72 µM (inactive) in assay [1]; 11.9 µM (inactive) in assay [2]; 0.469 µM in assay [3]; 0.726 µM (active) in assay [4]; 2.8 µM (inactive) in assay [5]. The GI50 in [7] was 0.895 µM (active); in assay [8] it was 1.87 µM (inactive); in [9], 46.1 µM (inactive); in [10], 0.215 µM (active); in [11], 1.52 µM (inactive); in [12], 0.624 µM (active). The GI50 in assay [13] was 5.37 µM (inactive); in assay [14] it was 4.53 µM (inactive); in assay [15] it was 1.87 µM (inactive); in assay [16], 0.692 µM (active); in assay [17] it was 4.73 µM (inactive); in assay [18], 1.01 µM (active). In assay [19], the GI50 is 1.55 µM (inactive).

In the case of `COC1=CC(=O)N(C(=O)[C@@H](OC(=O)[C@@H](C)N(C)C(=O)[C@@H]2CCCN2C(=O)[C@H](C(C)C)N(C)C(=O)[C@@H](NC(=O)[C@H](C(C)C)N(Cc2ccccc2)Cc2ccccc2)C(C)C)C(C)C)[C@H]1Cc1ccccc1` (Bn2Val-V[NMeV]P[dNMeA]-X26), the GI50 was > 100 µM (inactive) in assay [20]; > 100 µM (inactive) in assay [1]; > 100 µM (inactive) in [2]; more than 100 µM in assay [3]; > 100 µM (inactive) in [5]; > 100 µM (inactive) in assay [6]. Moreover, the GI50 in assay [7] is > 31.3 µM (inactive); in assay [8], 68.1 µM (inactive); in assay [9], 13.4 µM (inactive); in assay [10], > 100 µM (inactive); in [12], > 59.6 µM (inactive); in [13], > 100 µM (inactive). Further, the GI50 was > 26.2 µM (inactive) in [14]; > 100 µM (inactive) in [15]; > 71.3 µM (inactive) in assay [16]; > 50.7 µM (inactive) in assay [17]; 23.9 µM (inactive) in assay [18]; > 100 µM (inactive) in assay [19].

On to `CC(=O)NNc1nc(C)c(C(/C=C/c2ccc3c(c2)OCO3)=N/NC(=O)c2ccncc2)s1`, for which the GI50 in [20] was > 100 µM (inactive); in assay [1], > 100 µM (inactive); in assay [3], more than 100 µM; in [4] it was > 100 µM (inactive); in assay [5], > 100 µM (inactive); in assay [6], > 100 µM (inactive). For the same molecule, the GI50 in assay [7], in assay [8], in assay [9], in [10], in [11] and in assay [12] was > 100 µM (inactive) each time. Besides, the GI50 in assay [13], in assay [14], in [15], in assay [16], in [17] and in assay [18] was > 100 µM (inactive) throughout. In assay [19], the GI50 was > 100 µM (inactive).
